One test deals with α-adrenergic receptor. Kind of test: isolated rabbit aorta contraction, α-adrenergic receptor agonist activity. The test is classed as cell-based. As to conditions: isolated rabbit aorta strip. As for the experimental part: Female rabbits, weighing 2 to 5 kg., are sacrificed by cervical dislocation. The thoracic cavity is immediately opened and the descending aorta is removed and placed in a petrie dish containing an aqueous buffer solution (Krebs buffer) of 119 mM NaCl, 25 mM […], 4.7 mM KCl, 1.5 mM MgSO4, 1.2 mM KH2 PO4, 2.5 mM CaCl2, 11 mM glucose, 0.03 mM EDTA and 0.005 mM sodium ascorbate, adjusted to a pH of 7.4. The buffer solution is continuously aerated with a mixture of 95% O2 and 5% CO2 gases. The aorta is placed on cylindrical sticks and cleaned of excess fat and connective tissue, then cut into 2 tissue segments approximately 20 mm in length. Each segment of aorta is then spiraled in strips 3.5 mm wide by turning the stick as a scapel is applied, while leaving a section of 2-3 mm at each end of the aorta section intact. The spiraled tissue is mounted in an aerated (as above) tissue bath of 10 ml. of Kreb's buffer and is attached to a Grass force transducer with an initial applied tension of 2 grams. The tissue is allowed to equilibrate in the tissue bath at a temperature of 37°±0.5° C. until the tension on the force transducer stabilizes at 2 grams.
The tissue is washed with Krebs buffer until it relaxes to baseline tension.

Another test has as its target α2 -adrenergic receptors. The test is classed as binding, rat. Conditions: for Ki: rat brain cortex, [3H] rauwolscine, read-out: KIα2 (dissociation constant); for KIα1/KIα2: selectivity ratio, rat liver α1 vs rat brain cortex α2.
The next test has as its target T1, α1 -adrenergic receptors (Rattus norvegicus, UniProt P15823).
T1 construct: from tissue; host or cells: rat liver
T1 sequence (P15823 1-515): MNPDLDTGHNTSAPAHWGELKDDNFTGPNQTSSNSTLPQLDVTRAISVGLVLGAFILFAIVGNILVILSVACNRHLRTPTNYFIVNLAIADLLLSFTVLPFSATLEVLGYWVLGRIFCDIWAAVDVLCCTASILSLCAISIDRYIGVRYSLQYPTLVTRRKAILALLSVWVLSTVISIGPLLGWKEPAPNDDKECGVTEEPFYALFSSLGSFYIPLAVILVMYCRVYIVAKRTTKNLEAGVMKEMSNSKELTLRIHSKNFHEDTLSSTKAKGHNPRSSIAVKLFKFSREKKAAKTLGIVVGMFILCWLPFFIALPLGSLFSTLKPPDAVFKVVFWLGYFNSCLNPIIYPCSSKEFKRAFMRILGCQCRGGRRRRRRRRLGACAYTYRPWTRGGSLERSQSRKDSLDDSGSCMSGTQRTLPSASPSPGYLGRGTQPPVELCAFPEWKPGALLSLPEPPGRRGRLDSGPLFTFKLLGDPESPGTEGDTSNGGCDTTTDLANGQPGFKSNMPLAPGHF
Kind of test: radioligand binding, [3H] prazosin displacement in rat liver. Conditions: read-out: KIα1 (dissociation constant).

For test [1], the system named is spontaneously hypertensive rat. Nature of the test: arterial blood pressure and heart rate in the spontaneously hypertensive rat (tail cuff). The test is classed as in vivo. The protocol:
Two groups of Okamoto rats, which develop hypertension spontaneously when reaching young adulthood, are deprived of food for a period of 16 hours and are placed in semirestraining wire mesh cylinders maintained at a constant temperature of 36° C. An occluding cuff, operatively connected to a programmed sphygmomanometer, is placed over the tail of each rat of the group and retained near the tail base. […] A photocell is placed distal to the cuff to detect pulses resulting from the forward motion of blood flow with each heartbeat of the rat. As the pressure in the cuff increases, measurable pulses disappear at the point where the cuff pressure equals the arterial blood pressure. Measurable pluses reappear during deflation at approximately the same pressure, and arterial blood pressure is thereby established by cuff pressure at the point of pulse appearance. The heart rate is determined from the arterial pulse wave. Doses of 30 or 100 mg./kg. of the preferred compound of Example 6 were administered orally to each rat of the test groups and five interference-free signals were recorded on a Model 7 Grass polygraph for each rat at various measurement periods following administration.

Five compounds from patent US4505932A, “Method of producing α2 -adrenergic receptor agonist activity” (Abbott Laboratories, priority 1984, dated 1985) can be followed below.

Structures are written as SMILES. Counter-ions that a name gives are not always drawn.

Consider `CN(C)CC1CCc2c1ccc(O)c2O` (stereo not drawn) [Example 6, 1-N,N-Dimethylaminomethyl-4,5-dihydroxy indane hydrobromide], for which the “agonist character (intrinsic activity vs norepinephrine; >75% = full agonist)” value in the test on α-adrenergic receptor is listed as “full agonist”. For the same compound, the EC50 in the test with α-adrenergic receptor (contraction, read-out: ED50 (concentration producing half maximum response) in aorta strip) was 1600 nM. On α2 -adrenergic receptors, the Ki is 25 nM and the KIα1/KIα2 was determined as 276. Also, the Ki on α1 -adrenergic receptors is 6900 nM. Further, the arterial blood pressure entry in test [1] (30 or 100 mg./kg. orally, Okamoto rats) was “decrease the arterial blood pressure”. Further, in test [1] (spontaneously hypertensive rat, oral), the heart rate result is listed as “decrease”.

On to `CNCC1CCc2c1ccc(O)c2O` (stereo not drawn) [Example 10, 1-N-Methylaminomethyl-4,5-dihydroxy indane hydrobromide], for which, at α2 -adrenergic receptors, the Ki worked out at 6 nM and the KIα1/KIα2 is listed as 282. For the same compound, the Ki at α1 -adrenergic receptors is 1690 nM.

Take `NCC1CCc2c1ccc(O)c2O` (stereo not drawn) [B]: at α2 -adrenergic receptors, the Ki was 15 nM and the KIα1/KIα2 came to 575. At α1 -adrenergic receptors, the Ki stood at 8620 nM.

For `Clc1cccc(Cl)c1N=C1NCCN1` [Clonidine, clonidine, reference compound], the Ki at α2 -adrenergic receptors amounted to 34 nM.

On to `CNC[C@H](O)c1ccc(O)c(O)c1` [Epinephrine, epinephrine, reference compound], for which, on α2 -adrenergic receptors, the Ki was 53 nM.
